Measured values as given in patent publication US20220347118A1, “STABLE MEDICINAL CANNABIDIOL COMPOSITIONS” (CARDIOL THERAPEUTICS INC., priority 2019, published 2022).

Legend:
Solubility of CBD in BCP = format: physicochemical; conditions: in 1 mL of BCP and its derivatives
Protocol: For example, at least 300 mg of CBD can be dissolved in 1 mL of BCP and its derivatives. The enhanced stability of the CBD provides a composition with an acceptable shelf life and which can provide consistency in dosing and enhanced safety.

CB2 receptor = CB2 receptor (Homo sapiens, UniProt P34972); conditions: Proc Natl Acad Sci USA. 2008; 105(26):9099-104; cited from earlier work
CB2 receptor, sequence (P34972 whole entry): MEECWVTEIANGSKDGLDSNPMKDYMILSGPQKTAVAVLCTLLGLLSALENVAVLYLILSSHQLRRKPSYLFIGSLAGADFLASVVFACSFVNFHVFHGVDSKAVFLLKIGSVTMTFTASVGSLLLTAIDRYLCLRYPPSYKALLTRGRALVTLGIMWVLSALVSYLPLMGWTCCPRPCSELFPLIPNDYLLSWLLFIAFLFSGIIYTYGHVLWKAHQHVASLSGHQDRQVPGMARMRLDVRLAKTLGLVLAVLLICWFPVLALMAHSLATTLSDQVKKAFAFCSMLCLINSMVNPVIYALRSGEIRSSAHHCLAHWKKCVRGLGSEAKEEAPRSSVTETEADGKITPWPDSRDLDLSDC

SMILES	amount of CBD that can be dissolved in BCP (Solubility of CBD in BCP)	CB2 receptor binding / functional activity (CB2 receptor)
C=C(C)[C@@H]1CCC(C)=C[C@H]1c1c(O)cc(CCCCC)cc1O [CBD, cannabidiol]	at least 300 mg	–
C=C1CC/C=C(\C)CC[C@@H]2[C@@H]1CC2(C)C [β-caryophyllene, trans-(1R,9S)-8-Methylene-4,11,11-trimethylbicyclo[7.2.0]undec-4-ene]	–	selectively binds to the CB2 receptor and is a functional CB2 agonist
